Results reported in patent US10746738B2, “Claudin-1 peptide reagents and methods” (THE REGENTS OF THE UNIVERSITY OF MICHIGAN, priority 2015, dated 2020).
“Also recorded” adds a separate entry of the source.

How the values were obtained:
[1] = tested on: SW620 cells; experiment: Apparent association time constant by flow cytometry; type: binding, human; conditions: 5 μM, 4° C.
Protocol: To measure the apparent association time constant of RTS*-Cy5.5, SW620 cells were washed two times with PBS+0.5% BSA, then 1×10^5 cells were incubated with 5 μM RTS*Cy5.5 at 4° C. for different time intervals ranging from 2-15 min. The cells were immediately washed of unbound peptide several times with PBS+0.5% before analyzing via flow cytometry. The mean fluorescent intensity of SW620 cells at the various time points was ratioed with that of untreated cells and used to calculate the rate constant, k, by fitting the data to a first order kinetics model, y(t)=Imax[1−exp^(−kt)], using Origin 6.1 software.
To measure the apparent association time constant of RTS*-Cy5.5, SW620 cells were washed 2× with PBS+0.5% BSA, then ˜10^5 cells were incubated with 5 μM RTS*-Cy5.5 at 4° C. for time intervals ranging from 2-15 min. The cells were immediately washed of unbound peptide 5× with PBS+0.5% BSA before analyzing with flow cytometry. The mean fluorescence intensity of SW620 cells at the various time points was ratioed with that of untreated cells and used to calculate the rate constant k by fitting the data to a first order kinetics model, y(t)=Imax[1−exp^(−kt)], using Origin 6.1 software. An apparent association time constant k=0.83 min^−1 which corresponds to <1.2 min was measured.

[2] = tested on: colonic dysplasia; experiment: In vivo fluorescence endoscopy of colon in CPC;Apc mouse; conditions: CPC;Apc mouse colon
From the text: A genetically engineered mouse model (Cpc;Apc) that spontaneously forms adenomatous polyps in the colon was used for this study and handled according to Institutional Guidelines. The colons of anesthetized mice were first cleaned with water before imaging with a small animal endoscope (Karl Storz Veterinary Endoscope) using the white light channel to locate polyps by identifying anatomic landmarks and the distance of the endoscope tip from the anus. […] Fluorescent and reflectance images were then collected with the same endoscope set to the appropriate channels. Once in vivo imaging was complete, four of the mice used in the study were euthanized and colons harvested. Polyps and flat lesions detected during fluorescence imaging were located, removed, and processed for histology (H&E).
These mice are genetically-engineered to spontaneously develop colonic dysplasia, and the colonic lesions that develop are molecularly and histologically similar to that seen in human disease, making these mice a good model for monitoring cancer development. Because the extra-cellular domain of claudin-1 is completely homologous between human and mouse, peptides developed for human targets can be directly used in mouse imaging experiments. […] CPC;Apc mice were imaged at ˜3 months of age when they first begin to develop dysplasia. […] After imaging is completed, mice were euthanized, and the colons were resected. Based on the location of dysplastic lesions determined using fluorescence images collected with endoscopy, a pathologist measured the depth of dysplasia on histology, as shown by the dashed arrow in FIG. 7E. […] Images are obtained from mice over at least three sessions separated by 1 week to monitor for cancer progression.

[3] = tested on: proximal human colon specimens; experiment: Immunofluorescence of proximal human colon with claudin-1 peptide and antibody
Protocol: Formalin-fixed, paraffin-embedded (FFPE) specimens from human proximal colon were obtained from the archived tissue bank in the Department of Pathology at the University of Michigan. 5 μm thick sections were cut, mounted onto glass slides (Superfrost Plus, Fischer Scientific). The tissues were deparaffinized using a standard protocol. The sections were incubated with 3 rounds of xylene (3 min each) and 2 rounds of 100% and 95% ethanol (2 min each), and hydrated with water for 5 min. Antigen retrieval was performed with 10 mM citric acid buffer containing 0.05% Tween 20; pH 6.0. The specimens were placed in a citric acid buffer, maintained at a sub-boiling temperature for 15 min, and then allowed to cool to RT for 30 min. […] Confocal fluorescence images were collected with using a 63× oil immersion objective (Leica TCS SP5 Microsystems). […]
The mean fluorescence intensities from 3 boxes with dimensions of 20×20 μm2 placed completely within the surface epithelium of each image was measured for RTS*-Cy5.5 using custom Matlab software (MathWorks Inc). […]
Co-localization of peptide and antibody binding can be appreciated on these merged images, and the extent is characterized by the Pearson's correlation coefficient ρ. We measured the fluorescence intensities from binding of the RTS*-Cy5.5 peptide in a set of 3 boxes with dimensions of 20×20 μm^2 located at random on cells in the epithelium.

**Q.** Which results are given for “RTS*-Cy5.5: RTSPSSR labeled at the C-terminus with Cy5.5 via a GGGSK linker”?
**A.** time corresponding to association time constant [1]: < 1.2 min; apparent association time constant k ([1]; 2-15 min): 0.83 min⁻¹; fluorescence signal from dysplasia on endoscopy [2]: Increased signal; also recorded: increased fluorescence; binding on confocal microscopy ([3]; normal colonic mucosa and hyperplastic polyps): minimal fluorescence intensity; also recorded: minimal binding; binding on confocal microscopy ([3]; sessile serrated adenomas (SSA) and adenomas): strong binding; also recorded: found to bind; also recorded: Strong staining
